Experiment [1] relates to castor oil‐induced diarrhea. Description: Castor oil‐induced diarrhea test. It counts as in vivo, Swiss albino mice. As to conditions: mice; for Number of diarrheal feces: mean. On the procedure: (§1) To carry out the in vivo experiment, Swiss albino mice aged between 4 and 5 weeks, of both genders, were obtained from the Animal Resource Branch of the International Centre for Diarrheal Diseases and Research, Bangladesh (ICDDR, B) (the size of the animal population, n = 5). The mice were housed in standard polypropylene cages with a 12‐h light–dark cycle. Additionally, optimal conditions such as a controlled room temperature of 24°C ± 2°C and a relative humidity of 60%–70% were upheld. They were provided with ICDDR, B‐formulated rodent food, and water ad libitum. The research protocol was approved by the Animal Ethics Committee of the State University of Bangladesh, Dhaka (2023‐01‐04/SUB/A‐ ERC/003) before initiating the study. Throughout the experiments, strict adherence to guidelines for the use and care of laboratory animals was ensured. Recognizing the sensitivity of mice to environmental variations, they were acclimatized to the experimental conditions for a minimum of 3–4 days before the commencement of the experiment. Furthermore, all ethical protocols and regulations were strictly adhered to during the design and execution of the research experiments. At the end of the experiment, an anesthesia overdose (Ketamine HCl [100 mg/kg] and Xylazine [7.5 mg/kg]) through the intraperitoneal route was given to the mice models followed by euthanasia, following the previously delineated protocols established by Zimmermann ([1983]) and Davis ([2001]) (Alam et al. [2021]; Davis [2001]; Zimmermann [1983]). All tests were carried out in abiding with the guidelines for the care and use of laboratory animals, as approved by the institutional ethical committee.
The antidiarrheal potential of the compounds Chabamide I and Chingchengenamide A isolated from P. chaba was scrutinized employing the castor oil‐induced method, as delineated by Shoba and Thomas ([2001]) with slight adjustments. In this investigation, mice were judiciously randomized into four cohorts, each consisting of six subjects. Before experimentation, the mice underwent an overnight fasting period with unrestricted access to water.
Group I, designated as the control, received vehicle solutions comprising distilled water with 1% Tween‐80. […] Groups III and IV, representing the test cohorts, received isolated phytochemicals individually at oral dosages of 10 and 20 mg/kg body weight, respectively. An additional 0.5 mL of castor oil was applied to all subjects 1 h after the initial application of test samples. Subsequently, individual mice were placed in enclosures with floors lined with transparent paper.
Throughout the observational timeframe, diverse parameters were meticulously monitored, encompassing the initiation of diarrhea, quantification of wet stools in terms of number and weight, and the cumulative number and weight of fecal output. The observation persisted until 4 h […] the subsequent application of castor oil, with the calculated mean values being designated as the definitive results.

The test system of experiment [2] is Bacillus cereus [clinical isolates]. Description: Disk diffusion test. It counts as cell-based. In general terms: A growth-free zone around the sample is the usual read-out of agar diffusion tests.
Experiment [3] deals with Bacillus megaterium [ATCC 25918]. Description: Disk diffusion test. It counts as cell-based. Conditions: for Zone of Inhibition: Bacillus megaterium, standards 30 μg/disk; for zone of inhibition at 100 µg/disc: Priestia megaterium, ATCC25918.
Experiment [4] deals with Bacillus subtilis [ATCC6633]. Description: Disk diffusion test. As to conditions: for Zone of Inhibition: standards 30 μg/disk; for zone of inhibition at 100 µg/disc: ATCC6633. The experiment is classed as cell-based.
The subject of experiment [5] is Staphylococcus aureus [ATCC25923]. Nature of the experiment: Disk diffusion test. It counts as cell-based. As to conditions: for Zone of Inhibition: standards 30 μg/disk; for zone of inhibition at 100 µg/disc: ATCC25923.
For experiment [6], the system named is Sarcina lutea [clinical isolates]. Description: Disk diffusion test. Conditions: for Zone of Inhibition: Sarcina lutea, standards 30 μg/disk; for zone of inhibition at 100 µg/disc: Micrococcus luteus. It counts as cell-based.
The test system of experiment [7] is Escherichia coli [ATCC25922]. Description: Disk diffusion test. It counts as cell-based. As to conditions: for Zone of Inhibition: standards 30 μg/disk; for zone of inhibition at 100 µg/disc: ATCC25922.
Experiment [8] concerns Pseudomonas aeruginosa [ATCC27833]. Description: Disk diffusion test. Conditions: for zone of inhibition at 100 µg/disc: ATCC27833. It counts as cell-based.
Experiment [9] deals with Salmonella paratyphi [clinical isolates]. Nature of the experiment: microbe, parasite or virus in culture. The experiment is classed as cell-based. As to conditions: for Zone of Inhibition: Salmonella paratyphi, standards 30 μg/disk; for zone of inhibition at 100 µg/disc: Salmonella enterica, PARATYPHI
Experiment [10] deals with Salmonella typhi [clinical isolates]. Description: Disk diffusion test. Conditions: for Zone of Inhibition: Salmonella typhi; for zone of inhibition at 100 µg/disc: Salmonella enterica, TYPHI. The experiment is classed as cell-based.
Experiment [11] relates to Shigella dysenteriae [clinical isolates]. Description: Disk diffusion test. It counts as cell-based. Conditions: for Zone of Inhibition: standards 30 μg/disk.
The subject of experiment [12] is Vibrio mimicus [clinical isolates]. Description: Disk diffusion test. As to conditions: for Zone of Inhibition: standards 30 μg/disk. The experiment is classed as cell-based.
Experiment [13] relates to Vibrio parahemolyticus [clinical isolates]. Nature of the experiment: Disk diffusion test. The experiment is classed as cell-based. Conditions: for Zone of Inhibition: Vibrio parahemolyticus, standards 30 μg/disk; for zone of inhibition at 100 µg/disc: Vibrio.
The subject of experiment [14] is acetic acid‐induced writhing. Description: Acetic acid‐induced writhing test. Conditions: mice; for Number of writhing: mean. It counts as in vivo, Swiss albino mice. On the procedure: as §1
The analgesic efficacy of the isolated compounds, Chabamide I and Chingchengenamide A, was assessed utilizing the acetic acid‐induced writhing test, following the methodology outlined by Ahmad et al. ([2010]). […] Conversely, Groups III and IV received individual alkaloids at doses of 10 and 20 mg/kg; b.w, p.o., respectively. Subsequently, an intraperitoneal injection of acetic acid solution (0.6% v/v) was administered. The frequency of writhing responses was meticulously recorded at 5‐min intervals post‐acetic acid injection and monitored over 25 min.

The subject of experiment [15] is eight tested human tumor cell lines. Also noted: method as in Wang et al. [2014]. As to conditions: ref Wang et al. [2014]; cited from earlier work.

Each structure is given as a SMILES string. Values joined by “and” are separate entries in the source; they are usually repeats but may differ in a detail not shown here. Equal values may be shown once.

As to `CN(C)C(=O)C(CCN1CCC(O)(c2ccc(Cl)cc2)CC1)(c1ccccc1)c1ccccc1` [Loperamide, loperamide, reference compound], the “Number of diarrheal feces” value in experiment [1] (standard, 5 mg/kg b.w.) was 2.

In the case of `CC1(C)S[C@@H]2[C@H](NC(=O)[C@H](N)c3ccc(O)cc3)C(=O)N2[C@H]1C(=O)O` [Amoxicillin, amoxicillin, reference compound], the “Zone of Inhibition” value in experiment [2] (standards 30 μg/disk) stood at 33 mm; in experiment [3] it was 29 mm; in [4] it was 26 mm; in experiment [5], 36 mm; in experiment [6] it was 32 mm; in [7], 37 mm. Further, the “Zone of Inhibition” value in experiment [8] (standards 30 μg/disk) stood at 38 mm; in experiment [9], 32 mm; in experiment [10] (standards 30 μg/disk), 31 mm; in [11], 30 mm; in experiment [12], 28 mm; in experiment [13], 35 mm.

Regarding `CC(C)CNC(=O)C1C(C(=O)N2CCCCC2)C=CC(c2ccc3c(c2)OCO3)C1c1ccc2c(c1)OCO2` (stereo not drawn) [Chabamide I], the zone of inhibition (in general, the size of the clear area around the sample on an inoculated plate) at 100 µg/disc in [2] came out at 20 mm; in experiment [3], 15 mm; in [4], 11 mm; in experiment [5] it was 18 mm; in [6], 16 mm; in experiment [7], 18 mm. Besides, the zone of inhibition at 100 µg/disc was found to be 21 mm in [8]; 18 mm in [9]; 21 mm in [10]; 18 mm in [11]; 15 mm in experiment [12]; 16 mm in experiment [13]. Also, the “Zone of Inhibition” value in experiment [2] (100 μg/disk), in experiment [8] (100 μg/disk) and in experiment [10] (100 μg/disk) was “notable antimicrobial activity” in each case. The “% reduction of diarrhea” value is reported as 43.33% in experiment [1] (10 mg/kg b.w., oral) and 46.67% in experiment [1] (20 mg/kg b.w., oral). Also, the “Number of diarrheal feces” value in experiment [1] (10 mg/kg b.w., oral) is given as 5.67; in experiment [1] (20 mg/kg b.w., oral), 5.33. The “% reduction of writhing” value in experiment [14] (10 mg/kg b.w., p.o.) amounted to 40.82%; in experiment [14] (20 mg/kg b.w., p.o.), 53.06%. Further, the Number of writhing amounted to 9.67 in [14] (10 mg/kg b.w., p.o.) and 7.67 in experiment [14] (20 mg/kg b.w., p.o.). Besides, in [15], the “inhibitory effectiveness against human tumor cell lines” value was “inhibitory effectiveness against at least one of eight tested human tumor cell lines”.

In the case of `CC(C)CNC(=O)/C=C/C=C/CCc1ccc2c(c1)OCO2` [Chingchengenamide A], the zone of inhibition at 100 µg/disc is 17 mm in [2]; 14 mm in experiment [3]; 13 mm in experiment [4]; 15 mm in experiment [5]; 16 mm in [6]; 17 mm in experiment [7]. Also, the zone of inhibition at 100 µg/disc in experiment [8] was 21 mm; in experiment [9], 14 mm; in [10] it was 12 mm; in [11], 15 mm; in experiment [12] it was 16 mm; in [13] it was 15 mm. Further, the “% reduction of diarrhea” value in experiment [1] (10 mg/kg b.w., oral) is on record as 33.33%; in experiment [1] (20 mg/kg b.w., oral), 40%. For the same molecule, the “Number of diarrheal feces” value is recorded as 6.67 in [1] (10 mg/kg b.w., oral) and 6 in experiment [1] (20 mg/kg b.w., oral). Also, the “% reduction of writhing” value in experiment [14] (10 mg/kg b.w., p.o.) was 34.69%; in [14] (20 mg/kg b.w., p.o.), 42.86%. The Number of writhing in experiment [14] (10 mg/kg b.w., p.o.) is given as 10.67; in experiment [14] (20 mg/kg b.w., p.o.), 9.33. Also, the “inhibitory effectiveness against human tumor cell lines” value in experiment [15] is “inhibitory effectiveness against at least one of eight tested human tumor cell lines”.

With `CC[C@H]1OC(=O)[C@H](C)[C@@H](O[C@H]2C[C@@](C)(OC)[C@@H](O)[C@H](C)O2)[C@H](C)[C@@H](O[C@@H]2O[C@H](C)C[C@H](N(C)C)[C@H]2O)[C@](C)(O)C[C@@H](C)CN(C)[C@H](C)[C@@H](O)[C@]1(C)O` [Azithromycin, azithromycin, reference compound], the “Zone of Inhibition” value was determined as 35 mm in experiment [2] (standards 30 μg/disk); 33 mm in experiment [3]; 32 mm in experiment [4]; 39 mm in experiment [5]; 37 mm in experiment [6]; 39 mm in experiment [7]. Besides, the “Zone of Inhibition” value in experiment [8] (standards 30 μg/disk) is given as 42 mm; in experiment [9], 32 mm; in [10] (standards 30 μg/disk) it was 38 mm; in experiment [11], 38 mm; in [12], 33 mm; in experiment [13] it was 40 mm.

As to `O=C(O)Cc1ccccc1Nc1c(Cl)cccc1Cl` [Diclofenac Sodium, diclofenac sodium, reference compound], the “% reduction of writhing” value in [14] (standard, 5 mg/kg b.w., 5 mg/kg) was 80% and 77.55%. This molecule also yielded a Number of writhing in experiment [14] (standard, 5 mg/kg b.w.) of 3.67.
